Counter-ions that a name gives are not always drawn.
Biological target: T1, OT receptors (OTR) in the BNSTdl (Rattus norvegicus, UniProt P70536)
T1 construct: OT (100 ng), OTA (200 ng), or ACSF (all in volume of 0.5 μl per side) was injected bilaterally into the BNSTdl; from tissue; host or cells: brain (dorsolateral bed nucleus of the stria terminalis) of live male Sprague-Dawley rats
T1 sequence (P70536 1-388): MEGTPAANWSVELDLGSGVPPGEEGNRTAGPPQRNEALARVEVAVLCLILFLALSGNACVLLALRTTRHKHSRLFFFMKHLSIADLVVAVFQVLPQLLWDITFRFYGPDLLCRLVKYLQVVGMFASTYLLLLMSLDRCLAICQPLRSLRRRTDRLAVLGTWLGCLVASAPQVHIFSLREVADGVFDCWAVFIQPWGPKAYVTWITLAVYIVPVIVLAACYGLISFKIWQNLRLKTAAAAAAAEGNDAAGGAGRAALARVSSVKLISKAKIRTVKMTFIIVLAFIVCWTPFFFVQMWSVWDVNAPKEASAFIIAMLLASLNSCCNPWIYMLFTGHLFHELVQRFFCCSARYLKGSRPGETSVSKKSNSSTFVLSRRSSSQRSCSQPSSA
Experiment: Fear-potentiated startle (FPS): intra-BNSTdl OT or OTA before cued fear conditioning, then fear recall testing
Assay type: in vivo
Conditions: for TREATMENT effect on cued fear (percentage change of startle amplitude): OT 100 ng or OTA 200 ng bilateral intra-BNSTdl 10 min before fear conditioning, recall 24 h later in context B, P=0.0981; for TREATMENT effect on cued fear (percentage change of startle amplitude) / total discrimination index (DI) for the FPS session: one-way ANOVA ACSF/OT/OTA; for total discrimination index (DI) for the FPS session: all trials, P=0.1492; for discrimination between cued and non-cued fear (summary statement): infused into the BNSTdl before fear conditioning, FPS; for TREATMENT effect on cued fear (percent change), negative controls: injection sites outside the BNST, P=0.3990; for discrimination index over four time blocks, negative controls: injection sites outside the BNSTdl, P=0.5828; for discrimination index over four time blocks, negative controls / startle amplitude, light-noise vs noise-alone trials: effect of TREATMENT: two-way repeated measures ANOVA; for mean shock reactivity during the fear conditioning session / TREATMENT effect on percentage change of contextual fear / TREATMENT effect on percentage change of non-cued fear / startle amplitude, light-noise vs noise-alone trials: effect of TREATMENT: intra-BNSTdl ACSF, OT 100 ng, OTA 200 ng; for mean shock reactivity during the fear conditioning session: P=0.8684; for TREATMENT effect on percentage change of contextual fear: context A, day 5; for TREATMENT effect on percentage change of non-cued fear: context B, P=0.8993; for startle amplitude, light-noise vs noise-alone trials: effect of TREATMENT: P=0.8478
Method: A total of 75 rats were used for FPS experiments. The ACSF-treated group consisted of 23 rats, whereas there were 14 OT and 16 OTR antagonist (OTA)-treated rats included in the main analysis. […] These rats were analyzed as negative controls.
Stereotaxic surgery technique was identical to above except that guide cannulas were implanted bilaterally instead of a microdialysis probe (Moaddab and Dabrowska, 2017).
OT (100 ng), OTA (200 ng), or ACSF (all in volume of 0.5 μl per side) was injected bilaterally into the BNSTdl through a microinjector (28-gauge, 7 mm length; Plastics One, Roanoke, Va.) as described before (Moaddab and Dabrowska, 2017). Doses of OT and OTA were chosen based on previous studies on fear and anxiety in rats (Bale et al., 2001; Toth et al., 2012; Lahoud and Maroun, 2013; Neumann and Slattery, 2016; Moaddab and Dabrowska, 2017). Rats were assigned based on a second pre-test ASR into three treatment groups. Fear conditioning sessions were performed 10 min after the intra-BNSTdl injections.
FPS procedures were modified based on previous studies and according to protocol described in detail before (Walker et al., 2009; Missig et al., 2010; Ayers et al., 2011; Moaddab and Dabrowska, 2017). On days 1 and 2, rats underwent two pre-test sessions. On day 3 (fear conditioning), animals were placed in cylindrical enclosures containing a grid floor conveying foot shocks (as above). After 5 min acclimation, animals received 10 presentations of a 3.7 s cue light (CS), each co-terminating with a 0.5 s foot shock (US; 0.5 mA, inter-trial-interval 60-180 s). Background noise was absent during the conditioning session. Enclosures and chambers were cleaned with PREempt RTU disinfectant solution (Virox Technologies, Oakville, Canada) before and after each fear […] conditioning session (context A). Twenty-four hours later, on day 4, rats were tested for FPS expression (recall test) in context B. After 5 min of acclimation, they were exposed to 50 startle-eliciting WNBs (as above) and levels of cued and non-cued fear were measured. A background white noise of 70 dB continuously played throughout the session. The session consisted of 10 baseline startle trials (excluded from the analysis) followed by an additional 40 trials, with half presented in the presence of the cue light (CS+, light-noise) and the other half without the CS (CS-, noise-alone) in a pseudorandom order (inter-trial-interval 30 s). To make context A distinct from context B, enclosures and chambers were cleaned with 70% ethanol before and after the […] (different than in fear conditioning). The grid floor was also removed from the enclosures during cued FPS testing. In addition, a different experimenter from the training session performed the FPS testing session. On day 5, the same rats were tested for contextual fear recall in context A, where after 10 baseline startle trials (excluded from the analysis), startle amplitude was measured during 40 additional CS− trials (noise-alone, inter-trial-interval 30 s, FIG. 5, C).
Startle amplitude was defined as the maximum peak voltage within the first 200 ms after onset of the WNB. Shock reactivity amplitude was recorded during the fear conditioning session and was defined as the maximum peak voltage that occurred during the 500 ms foot shock delivery. Cued, non-cued, and contextual fear, were calculated as percent change scores of startle amplitude based on previous FPS studies (Walker et al., 2009; Missig et al., 2010; Ayers et al., 2011; Moaddab and Dabrowska, 2017).

Molecule	discrimination index in the fourth time block of fear memory recall, vs ACSF-treated group (OT 100 ng intra-BNSTdl, Bonferroni post hoc, P=0.0121)	TREATMENT effect on cued fear (percentage change of startle amplitude)	total discrimination index (DI) for the FPS session	discrimination between cued and non-cued fear (summary statement)	TREATMENT effect on cued fear (percent change), negative controls	discrimination index over four time blocks, negative controls	mean shock reactivity during the fear conditioning session	TREATMENT effect on percentage change of contextual fear	TREATMENT effect on percentage change of non-cued fear	startle amplitude, light-noise vs noise-alone trials: effect of TREATMENT	discrimination index in the fourth time block of fear memory recall, OT vs OTA-treated groups (OT 100 ng vs OTA 200 ng intra-BNSTdl, Bonferroni post hoc, P=0.0007)	OTA effect on cued fear vs ACSF (OTA 200 ng intra-BNSTdl, un-paired t-test vs ACSF, P=0.0763)
CC[C@H](C)[C@@H]1NC(=O)[C@H](Cc2ccc(O)cc2)NC(=O)[C@@H](N)CSSC[C@@H](C(=O)N2CCC[C@H]2C(=O)N[C@@H](CC(C)C)C(=O)NCC(N)=O)NC(=O)[C@H](CC(N)=O)NC(=O)[C@H](CCC(N)=O)NC1=O [OT, OT acetate salt]	significant differences in the discrimination indices	a trend in the TREATMENT effect on cued fear	not significantly different	significantly increases discrimination between cued and non-cued fear	no significant effect of TREATMENT on cued fear	no significant main effect of TREATMENT	not different	no TREATMENT effect	no TREATMENT effect	no main effect of TREATMENT	–	–
(d(CH2)5^1, D-Tyr^2, Thr4, Orn8, des-Gly-NH2 9)-vasotocin trifluoroacetate salt [OTA]	–	a trend in the TREATMENT effect on cued fear	not significantly different	disables this discrimination	no significant effect of TREATMENT on cued fear	no significant main effect of TREATMENT	not different	no TREATMENT effect	no TREATMENT effect	no main effect of TREATMENT	significant differences in the discrimination indices	a trend in the OTA effect on cued fear
